The values that follow come from patent publication US20090053220A1, “METHODS AND COMPOSITIONS FOR THE INHIBITION OF HIV INFECTION OF T CELLS” (priority 2006, published 2009).

Test [1] concerns JRCSF WT envelope reporter virus. Type of test: cell-based, HIV. An excerpt:
A DNA expression vector comprising the envelope protein of HIV strain JRCSF was constructed using a commercially available pCI-neo vector (Promega, Madison, Wis.). JRCSF is a primary isolate obtained from an HIV patient which was deposited with the NIH AIDS Research & Reference Reagent Program (Cat. No. 2708). The JRCSF envelope open reading frame was amplified by standard PCR using the following primers: […]
These primers initiate priming at codon 2 of the envelope open reading frame and immediately downstream of the envelope termination codon, respectively. They contain restriction enzymes recognition sequences suitable for directional cloning into the pCI-neo vector. This JRCSF envelope protein expression vector was used in Example 6 below as the WT control. […]
Viral infections were carried out in a human malignant glioma (U87) target cell expressing the human CD4 receptor and the human CCR5 chemokine receptor. […] After 3 days the level of luciferase expressed in target cells was measured using a luciferase reporter gene assay reagent (Promega, Madison, Wis.), as described by the manufacturer. […]

The test system of test [2] is T-20-resistant JRCSF envelope variant G36D reporter virus. Type of test: cell-based, HIV. The text has this: (§1) In addition, three single amino acid substitutions, G36D, V38A and N43D, known to confer T-20 resistance for HIV were introduced into the JRCSF open reading frame by site-directed mutagenesis (QuikChange II kit, Stratagene, La Jolla, Calif.), thereby generating three T-20-resistant HIV envelope protein expression vectors called […], V38A and N43D.
(§2) HIV reporter viruses for purposes of this experiment were constructed from: (1) the JRCSF WT envelope protein vector, (2) the T-20-resistant envelope protein variants G36D, V38A, or N43D generated in Example 4; or (3) the patient derived HIV envelope protein population of vectors from KJM (Day 1) or KJM (Week9) generated in Example 5. The reporter viruses were produced by co-transfecting the human embryonic kidney cell line HEK293FT (Invitrogen, Carlsbad, Calif.) with the envelope vectors described above and an envelope-deficient proviral DNA encoding a luciferase reporter gene. The cells were propagated in Dulbecco's Modified Eagle Medium (Invitrogen, Carlsbad, Calif.) supplemented with 10% fetal bovine serum (Invitrogen, Carlsbad, Calif.). Transfections were performed using Lipofectamine 2000 (Invitrogen, Carlsbad, Calif.). Culture supernatants were harvested 48 hours post-transfection and filtered through a 0.45 micron filter prior to infecting target cells.
(§3) Viral infections were carried out in a human malignant glioma (U87) target cell expressing the human CD4 receptor and the human CCR5 chemokine receptor. Target cells were seeded into 96-well plates at a density of 3000 cells/well in Dulbecco's Modified Eagle Medium (Invitrogen, Carlsbad, Calif.) supplemented with 10% fetal bovine serum (Invitrogen. Carlsbad, Calif.) and cultured for […]. Target cells were then exposed to the virus generated in Example 6 mixed with varying concentrations of the entry inhibitors T-20 or an anti-CD4 MAb in a final volume of 40-80 microliters. Infection was triggered by centrifugation of the 96-well plates at 1200*g for 1.5-2.0 hours at 25° C. (i.e. spinoculation). After spinoculation, culture medium was added to a final volume of […] per well and the infected cultures were incubated for 3 days at 37° C. After 3 days the level of luciferase expressed in target cells was measured using a luciferase reporter gene assay reagent (Promega, Madison, Wis.), as described by the manufacturer.
(§4) Dose-response curves for the inhibition of luciferase expression by entry inhibitors were derived by fitting the luciferase data with a four-parameter logistic using Origin 7 Client software (OriginLab, Northampton, Mass.). Each dose-response experiment comprised a nine point concentration curve plus untreated controls, all assayed in triplicate wells (raw data not shown). For each EC50 determination, the results of three or more independent experiments were used to calculate the average EC50 and standard error values.

The subject of test [3] is T-20-resistant JRCSF envelope variant N43D reporter virus. Type of test: cell-based, HIV.
Source text: as §1, §2, §3, §4

The subject of test [4] is T-20-resistant JRCSF envelope variant V38A reporter virus. Type of test: cell-based, HIV.
Source text: as §1, §2, §3, §4

For test [5], the system named is patient-derived envelope population KJM (day 1) reporter virus. Type of test: cell-based, HIV. The conditions noted are these: KJM D1 virus.
Source text: (§5) HIV RNA was extracted from patient serum using QIAamp isolation kits (Qiagen, Hilden. Germany) and used to generate cDNA with random hexamer primers (SuperScript First Strand Synthesis System for RT-PCR, Invitrogen, Carlsbad, Calif.). HIV envelope protein open reading frame sequences were specifically amplified using a nested PCR procedure with outer PCR primers: […]
(§6) which initiate priming 239 bases upstream and 349 bases downstream of the envelope open reading frame, respectively. The inner PCR primers were the same primers used for directional cloning of the envelope sequence populations into the pCI-neo vector, as described in Example 4. The resulting PCR products represent a population of envelope sequences from HIV viruses present in two patient samples, KJM (day 1) and KJM (week 9).
as §2, §3, §4

For test [6], the system named is patient-derived envelope population KJM (week 9) reporter virus. The class given is cell-based, HIV. The conditions noted are these: KJM W9 virus.
Source text: as §5, §6, §2, §3, §4

In test [7] the target is envelope protein of HIV strain JRCSF (WT) (HIV strain JRCSF) (UniProt P20871). As to the kind of experiment: cell-based or functional assay.
The target in test [8] is envelope protein of HIV strain JRCSF with G36D (HIV strain JRCSF) (UniProt P20871). As to the kind of experiment: cell-based or functional assay.
The target in test [9] is envelope protein of HIV strain JRCSF with N43D (HIV strain JRCSF) (UniProt P20871). In words: cell-based or functional assay.
Test [10] addresses envelope protein of HIV strain JRCSF with V38A (HIV strain JRCSF) (UniProt P20871). In words: cell-based or functional assay.
The mark [11] stands for this setting: average +/- standard error, 4 determinations.

The EC50 is the concentration at which the effect is half-maximal. A low value points to an effect from little substance. Take enfuvirtide: the PMI in test [1] came to 98 ± 2.4; in [2] it was 99 ± 1.5; in test [3], 96 ± 3.4; in test [4], 91 ± 8.9; in [5], 99 ± 1.3; in test [6], 100 ± 0.58. Moreover, the half-maximal effective concentration (EC50) in test [1] (setting [11]) was found to be 0.013 ± 0.0035 µg/mL; in test [2] (setting [11]) it was 0.14 ± 0.026 µg/mL; in test [3] (setting [11]), 0.28 ± 0.08 µg/mL; in test [4] (setting [11]), 0.41 ± 0.21 µg/mL; in [5] (setting [11]) it was 0.0091 ± 0.003 µg/mL; in test [6] (setting [11]), 0.0085 ± 0.0027 µg/mL. The “Fold Change” value is recorded as 11 in test [2] (EC50MUT/EC50WT JRCSF), 22 in [3] (EC50MUT/EC50WT JRCSF), 32 in test [4] (EC50MUT/EC50WT JRCSF) and 0.93 in test [6] (EC50W9/EC50D1).
As for T-20 (peptide), the PMI is 98% in test [7], 99% in test [8], 96% in test [9] and 91% in test [10]. In addition, the Fold Change (EC50MUT/EC50WT JRCSF) in [8] amounted to 11 fold; in test [9], 22 fold; in test [10] it was 32 fold.
